The values that follow come from patent US20220033397A1, “PHARMACEUTICAL COMPOUNDS AND THEIR USE AS INHIBITORS OF UBIQUITIN SPECIFIC PROTEASE 19 (USP19)” (ALMAC DISCOVERY LIMITED, priority 2018, published 2022).

The target in the assay is T1, Full-length USP19 (Homo sapiens, UniProt O94966).
T1 construct: Full-length USP19 was purchased from Boston Biochem (E-576); purchased Boston Biochem E-576
T1 sequence (O94966 1-1318): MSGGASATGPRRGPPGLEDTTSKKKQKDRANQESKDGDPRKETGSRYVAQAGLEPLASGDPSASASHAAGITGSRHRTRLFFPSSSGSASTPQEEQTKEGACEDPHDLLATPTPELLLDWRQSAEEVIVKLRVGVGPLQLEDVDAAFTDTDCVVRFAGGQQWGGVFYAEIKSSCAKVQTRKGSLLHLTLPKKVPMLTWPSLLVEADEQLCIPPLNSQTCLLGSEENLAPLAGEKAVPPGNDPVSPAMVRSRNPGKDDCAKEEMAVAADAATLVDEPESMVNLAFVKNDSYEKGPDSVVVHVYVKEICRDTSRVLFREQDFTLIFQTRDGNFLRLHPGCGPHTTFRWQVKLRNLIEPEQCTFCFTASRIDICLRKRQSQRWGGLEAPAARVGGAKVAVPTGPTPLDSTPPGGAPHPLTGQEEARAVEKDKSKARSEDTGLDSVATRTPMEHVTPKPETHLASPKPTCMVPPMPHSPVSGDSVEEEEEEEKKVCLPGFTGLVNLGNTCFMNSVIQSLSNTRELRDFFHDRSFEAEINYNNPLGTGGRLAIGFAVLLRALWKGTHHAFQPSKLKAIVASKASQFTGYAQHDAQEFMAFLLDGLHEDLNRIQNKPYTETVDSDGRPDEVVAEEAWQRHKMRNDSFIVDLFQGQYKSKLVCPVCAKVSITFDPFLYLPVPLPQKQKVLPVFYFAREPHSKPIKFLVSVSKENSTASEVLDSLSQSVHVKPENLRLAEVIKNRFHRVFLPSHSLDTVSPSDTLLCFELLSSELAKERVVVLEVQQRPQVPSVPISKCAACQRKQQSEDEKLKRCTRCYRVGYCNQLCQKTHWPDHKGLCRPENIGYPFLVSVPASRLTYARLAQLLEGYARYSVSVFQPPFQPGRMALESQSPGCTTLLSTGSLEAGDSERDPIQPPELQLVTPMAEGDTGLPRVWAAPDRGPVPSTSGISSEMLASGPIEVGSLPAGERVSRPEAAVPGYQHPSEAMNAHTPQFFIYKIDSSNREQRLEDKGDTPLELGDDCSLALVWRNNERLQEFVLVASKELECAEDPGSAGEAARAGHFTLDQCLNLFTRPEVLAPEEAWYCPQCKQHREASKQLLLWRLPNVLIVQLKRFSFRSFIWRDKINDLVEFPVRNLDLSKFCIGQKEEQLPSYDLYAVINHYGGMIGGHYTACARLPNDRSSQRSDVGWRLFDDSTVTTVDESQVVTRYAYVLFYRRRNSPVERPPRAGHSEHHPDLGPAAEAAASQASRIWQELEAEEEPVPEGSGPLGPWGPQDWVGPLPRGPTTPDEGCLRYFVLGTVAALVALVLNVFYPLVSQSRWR
Description: USP19 fluorescence polarisation (FP) homogeneous assay with Ubiquitin-Lys-TAMRA substrate. The assay is classed as biochemical. As to conditions: 2.5 nM USP19, 30 min pre-incubation, average of at least two duplicate experiments. Summed up:
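Full-length USP19 preincubated 30 min at RT with inhibitor (200 μM to 2 μM series, 8–18 points) before adding 500 nM Ubiquitin-Lys-TAMRA substrate.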

What is called IC50 is the midpoint of a concentration-inhibition curve. Take `C[C@H](CC1CCCCC1)C(=O)N1CCC(O)(Cn2cnc3ccc(F)cc3c2=O)C2(CCCC2)C1` (stereo partly drawn) [Example 154, 3-((7-((R)-3-Cyclohexyl-2-methylpropanoyl)-10-hydroxy-7-azaspiro[4.5]decan-10-yl)methyl)-6-fluoroquinazolin-4(3H)-one]: the IC50 was under 0.5 µM.

With `C[C@H](CC1CCCCC1)C(=O)N1CCC(O)(Cn2cnc3cc(F)c(Cl)cc3c2=O)C2(CCCC2)C1` (stereo partly drawn) [Example 155, 6-Chloro-3-((7-((R)-3-cyclohexyl-2-methylpropanoyl)-10-hydroxy-7-azaspiro[4.5]decan-10-yl)methyl)-7-fluoroquinazolin-4(3H)-one], the IC50 was under 0.5 µM.

As for `C[C@H](CC(F)(F)F)C(=O)N1CCC(O)(Cn2cnc3cc(F)ccc3c2=O)C2(CCCC2)C1` (stereo partly drawn) [Example 156, 7-Fluoro-3-((10-hydroxy-7-((R)-4,4,4-trifluoro-2-methylbutanoyl)-7-azaspiro[4.5]decan-10-yl)methyl)quinazolin-4(3H)-one], the IC50 was in the range of 5 to 50 µM.

Consider `C[C@H](CC1CCCCC1)C(=O)N1CCC(O)(Cn2cnc3ccncc3c2=O)C2(CCCC2)C1` (stereo partly drawn) [Example 157, 3-((7-((R)-3-Cyclohexyl-2-methylpropanoyl)-10-hydroxy-7-azaspiro[4.5]decan-10-yl)methyl)pyrido[4,3-d]pyrimidin-4(3H)-one], for which the IC50 was in the range of 0.5 to 5 µM.

Turning to `C[C@H](CC1CCCCC1)C(=O)N1CCC(O)(Cn2ccc3ncncc3c2=O)C2(CCCC2)C1` (stereo partly drawn) [Example 158, 6-((7-((R)-3-Cyclohexyl-2-methylpropanoyl)-10-hydroxy-7-azaspiro[4.5]decan-10-yl)methyl)pyrido[4,3-d]pyrimidin-5(6H)-one], the IC50 was 0.5 to 5 µM.

Regarding `C[C@H](CC(F)(F)F)C(=O)N1CCC(O)(Cn2ccc3ncncc3c2=O)C2(CCCC2)C1` (stereo partly drawn) [Example 159, 6-((10-Hydroxy-7-((R)-4,4,4-trifluoro-2-methylbutanoyl)-7-azaspiro[4.5]decan-10-yl)methyl)pyrido[4,3-d]pyrimidin-5(6H)-one], the IC50 fell in the range of 5 to 50 µM.

In the case of `CSc1ncc2c(=O)n(CC3(O)CCN(C(=O)[C@H](C)CC4CCCCC4)CC34CCCC4)cnc2n1` (stereo partly drawn) [Example 160, 3-((7-((R)-3-Cyclohexyl-2-methylpropanoyl)-10-hydroxy-7-azaspiro[4.5]decan-10-yl)methyl)-7-(methylthio)pyrimido[4,5-d]pyrimidin-4(3H)-one], the IC50 was under 0.5 µM.

For the compound `CSc1ncc2c(=O)n(CC3(O)CCN(C(=O)[C@H](C)CC(F)(F)F)CC34CCCC4)cnc2n1` (stereo partly drawn) [Example 161, 3-((10-Hydroxy-7-((R)-4,4,4-trifluoro-2-methylbutanoyl)-7-azaspiro[4.5]decan-10-yl)methyl)-7-(methylthio)pyrimido[4,5-d]pyrimidin-4(3H)-one], the IC50 was in the range of 0.5 to 5 µM.

On to `C[C@H](CC(F)(F)F)C(=O)N1CCC(O)(Cn2cnc3nc(N4CCOCC4)ncc3c2=O)C2(CCCC2)C1` (stereo partly drawn) [Example 162, 3-((10-Hydroxy-7-((R)-4,4,4-trifluoro-2-methylbutanoyl)-7-azaspiro[4.5]decan-10-yl)methyl)-7-morpholinopyrimido[4,5-d]pyrimidin-4(3H)-one], for which the IC50 fell in the range of 0.5 to 5 µM.

Take `C[C@H](CC(F)(F)F)C(=O)N1CCC(O)(Cn2cnc3nc(N4CCN(C)CC4)ncc3c2=O)C2(CCCC2)C1` (stereo partly drawn) [Example 163, 3-((10-Hydroxy-7-((R)-4,44-trifluoro-2-methylbutanoyl)-7-azaspiro[4.5]decan-10-yl)methyl)-7-(4-methylpiperazin-1-yl)pyrimido[4,5-d]pyrimidin-4(3H)-one]: the IC50 is 0.5 to 5 µM.

Take `O=C(N1CCC(O)(Cn2cnc3ccc(F)cc3c2=O)C2(CCCC2)C1)N1CCOC[C@H]1c1ccccc1` (stereo partly drawn) [Example 164, 6-Fluoro-3-((10-Hydroxy-7-((R)-3-phenylmorpholine-4-carbonyl)-7-azaspiro[4.5]decan-10-yl)methyl)quinazolin-4(3H)-one]: the IC50 is under 0.5 µM.

On to `O=C(N1CCC(O)(Cn2cnc3cc(F)c(F)cc3c2=O)C2(CCCC2)C1)N1CCOC[C@H]1c1ccccc1` (stereo partly drawn) [Example 165, 6,7-Difluoro-3-((10-hydroxy-7-((R)-3-phenylmorpholine-4-carbonyl)-7-azaspiro[4.5]decan-10-yl)methyl)quinazolin-4(3H)-one], for which the IC50 is under 0.5 µM.

Take `O=C(N1CCC(O)(Cn2ccc3ccncc3c2=O)C2(CCCC2)C1)N1CCOC[C@H]1c1ccccc1` (stereo partly drawn) [Example 166, 2-((10-Hydroxy-7-((R)-3-phenylmorpholine-4-carbonyl)-7-azaspiro[4.5]decan-10-yl)methyl)-2,7-naphthyridin-1(2H)-one]: the IC50 lay in the range of 0.5 to 5 µM.

In the case of `O=C(N1CCC(O)(Cn2cnc3c(cnn3Cc3ccccc3)c2=O)C2(CCCC2)C1)N1CCOC[C@H]1c1ccccc1` (stereo partly drawn) [Example 167, 1-Benzyl-5-((10-hydroxy-7-((R)-3-phenylmorpholine-4-carbonyl)-7-azaspiro[4.5]decan-10-yl)methyl)-1,5-dihydro-4H-pyrazolo[3,4-d]pyrimidin-4-one], the IC50 fell in the range of 0.5 to 5 µM.

On to `C[C@H](CC(F)(F)F)C(=O)N1CCC(O)(Cn2cnc3c(cnn3Cc3ccccc3)c2=O)C2(CCCC2)C1` (stereo partly drawn) [Example 168, 1-Benzyl-5-((10-hydroxy-7-((R)-4,4,4-trifluoro-2-methylbutanoyl)-7-azaspiro[4.5]decan-10-yl)methyl)-1,5-dihydro-4H-pyrazolo[3,4-d]pyrimidin-4-one], for which the IC50 lay in the range of 5 to 50 µM.

For `O=C(N1CCC(O)(Cn2cnc3ccc(F)cc3c2=O)C2(CCCC2)C1)N1CCNC[C@H]1c1ccccc1` (stereo partly drawn) [Example 169, 6-Fluoro-3-((10-hydroxy-7-((R)-2-phenylpiperazine-1-carbonyl)-7-azaspiro[4.5]decan-10-yl)methyl)quinazolin-4(3H)-one], the IC50 is under 0.5 µM.

As to `O=C(N1CCC(O)(Cn2cnc3cc(F)c(F)cc3c2=O)C2(CCCC2)C1)N1CCNC[C@H]1c1ccccc1` (stereo partly drawn) [Example 170, 6,7-Difluoro-3-((10-hydroxy-7-((R)-2-phenylpiperazine-1-carbonyl)-7-azaspiro[4.5]decan-10-yl)methyl)quinazolin-4(3H)-one], the IC50 was under 0.5 µM.

As for `O=C(N1CCC(O)(Cn2ccc3ccncc3c2=O)C2(CCCC2)C1)N1CCNC[C@H]1c1ccccc1` (stereo partly drawn) [Example 171, 2-((10-Hydroxy-7-((R)-2-phenylpiperazine-1-carbonyl)-7-azaspiro[4.5]decan-10-yl)methyl)-2,7-naphthyridin-1(2H)-one], the IC50 is under 0.5 µM.

As to `O=C(N1CCC(O)(Cn2cnc3c(cnn3Cc3ccccc3)c2=O)C2(CCCC2)C1)N1CCNC[C@H]1c1ccccc1` (stereo partly drawn) [Example 172, 1-Benzyl-5-((10-hydroxy-7-((R)-2-phenylpiperazine-1-carbonyl)-7-azaspiro[4.5]decan-10-yl)methyl)-1,5-dihydro-4H-pyrazolo[3,4-d]pyrimidin-4-one], the IC50 was under 0.5 µM.

As to `C[C@H](CC1CCCCC1)C(=O)N1CCC(O)(Cn2cnc3cn(C)nc3c2=O)C2(CCCC2)C1` (stereo partly drawn) [Example 173, 6-((7-((R)-3-Cyclohexyl-2-methylpropanoyl)-10-hydroxy-7-azaspiro[4.5]decan-10-yl)methyl)-2-methyl-2,6-dihydro-7H-pyrazolo[4,3-d]pyrimidin-7-one], the half-maximal inhibitory concentration (IC50) lay within 5 to 50 µM.

For `C[C@H](CC1CCCCC1)C(=O)N1CCC(O)(Cn2c(=O)c3cncnc3n2C)C2(CCCC2)C1` (stereo partly drawn) [Example 174, 2-((7-((R)-3-Cyclohexyl-2-methylpropanoyl)-10-hydroxy-7-azaspiro[4.5]decan-10-yl)methyl)-1-methyl-1,2-dihydro-3H-pyrazolo[3,4-d]pyrimidin-3-one], the IC50 lay in the range of 5 to 50 µM.

Take `Cn1c2ncncc2c(=O)n1CC1(O)CCN(C(=O)N2CCNC[C@H]2c2ccccc2)CC12CCCC2` (stereo partly drawn) [Example 175, 2-((10-Hydroxy-7-((R)-2-phenylpiperazine-1-carbonyl)-7-azaspiro[4.5]decan-10-yl)methyl)-1-methyl-1,2-dihydro-3H-pyrazolo[3,4-d]pyrimidin-3-one]: the 50% inhibitory concentration (IC50) lay in the range of 5 to 50 µM.
